This is an account of results in ChEMBL document CHEMBL6127068, “Discovery of novel nitrofuran PROTAC-like compounds as dual inhibitors and degraders targeting STING” (Eur J Med Chem, 2024).

Structures are written as SMILES. Active and inactive are the calls of the source. The rule behind the calls is not given here.

For data set [1], the target named is T1, Protein cereblon/Stimulator of interferon genes protein (Homo sapiens, UniProt Q96SW2+Q86WV6). Description: PROTAC activity at CRBN/STING in human THP-1 cells assessed as induction of STING degradation at 10 uM incubated for 24 hrs by western blot analysis. The data set is classed as cell-based. (In western blotting, separated proteins are transferred to a membrane and probed.)

A short description of data set [2]: Cytotoxicity against HUVEC assessed as reduction in cell viability at 3.3 uM incubated for 48 hrs by MTT assay. The data set is classed as toxicity, cell-based. The settings on record: human, HUVEC cells, read-out: INH.
A short description of data set [3]: Cytotoxicity against HEK293T cells assessed as reduction in cell viability at 3.3 uM incubated for 48 hrs by MTT assay. The data set is classed as toxicity, cell-based, HEK-293T. Particulars: human, read-out: INH. Background: Formazan colour is commonly taken as a measure of viable cells.
Data set [4] deals with T2, von Hippel-Lindau disease tumor suppressor/Stimulator of interferon genes protein (Homo sapiens, UniProt P40337+Q86WV6). As to the kind of experiment: PROTAC activity at VHL/STING (unknown origin) assessed as induction of protein degradation. Format: protein assay.
Target sequence in this assay (P40337 whole entry): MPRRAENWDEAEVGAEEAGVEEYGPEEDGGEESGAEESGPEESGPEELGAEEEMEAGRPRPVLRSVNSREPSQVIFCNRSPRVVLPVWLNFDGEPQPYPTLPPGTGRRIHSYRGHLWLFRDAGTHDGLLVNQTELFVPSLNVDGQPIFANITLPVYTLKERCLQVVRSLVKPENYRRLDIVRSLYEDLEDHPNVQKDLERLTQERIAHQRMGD
Target sequence in this assay (Q86WV6 whole entry): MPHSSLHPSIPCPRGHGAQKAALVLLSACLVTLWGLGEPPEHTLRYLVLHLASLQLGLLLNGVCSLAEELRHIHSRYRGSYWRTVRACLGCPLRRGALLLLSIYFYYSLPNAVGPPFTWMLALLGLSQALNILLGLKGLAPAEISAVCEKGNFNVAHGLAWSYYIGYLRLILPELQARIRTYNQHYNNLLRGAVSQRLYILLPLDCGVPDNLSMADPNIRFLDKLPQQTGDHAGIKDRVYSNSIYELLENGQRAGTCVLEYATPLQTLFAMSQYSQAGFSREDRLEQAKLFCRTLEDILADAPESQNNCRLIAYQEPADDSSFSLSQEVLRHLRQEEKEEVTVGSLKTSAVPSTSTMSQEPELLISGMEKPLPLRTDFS
Data set [5] deals with T2, von Hippel-Lindau disease tumor suppressor/Stimulator of interferon genes protein. As to the kind of experiment: PROTAC activity at VHL/STING (unknown origin) assessed as induction of protein degradation relative to control. The data set is classed as protein assay.
Target sequence in this assay (P40337 whole entry, looked up): as the sequence (P40337 whole entry) above
Target sequence in this assay (Q86WV6 whole entry, looked up): as the sequence (Q86WV6 whole entry) above
For data set [6], the target named is T1, Protein cereblon/Stimulator of interferon genes protein. Description: PROTAC activity at CRBN/STING in human THP-1 cells assessed as induction of STING degradation at 10 uM pretreated with proteasome inhibitor, MG132 for 1 hr followed by incubation with compound for 24 hrs by western blot analysis. The data set is classed as cell-based.

T1 sequence (Q86WV6 whole entry, looked up): as the sequence (Q86WV6 whole entry) above
T1 sequence (Q96SW2 whole entry, looked up): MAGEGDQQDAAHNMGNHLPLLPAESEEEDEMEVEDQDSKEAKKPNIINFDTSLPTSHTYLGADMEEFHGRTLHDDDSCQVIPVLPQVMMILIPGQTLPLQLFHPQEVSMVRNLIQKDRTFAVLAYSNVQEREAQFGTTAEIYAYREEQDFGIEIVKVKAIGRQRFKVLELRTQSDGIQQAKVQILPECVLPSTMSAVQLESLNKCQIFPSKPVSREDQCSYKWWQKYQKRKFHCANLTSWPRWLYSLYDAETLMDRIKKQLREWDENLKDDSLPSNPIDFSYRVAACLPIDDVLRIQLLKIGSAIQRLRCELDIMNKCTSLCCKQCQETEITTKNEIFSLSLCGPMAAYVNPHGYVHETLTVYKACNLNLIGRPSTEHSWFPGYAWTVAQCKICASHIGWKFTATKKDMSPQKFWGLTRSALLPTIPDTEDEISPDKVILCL

For the compound `O=C1CCC(N2C(=O)c3ccc(OCc4cn(CCCC(=O)OCCc5ccc(NC(=O)c6ccc([N+](=O)[O-])o6)cc5)nn4)cc3C2=O)C(=O)N1` (stereo not drawn), in data set [1], the Activity is 76%.

With `CCCCc1ccc(NC(=O)c2ccc([N+](=O)[O-])o2)cc1`, the cytotoxicity at 48 h, 3.3 µM in data set [2] was determined as 68.2%; in data set [3], 80.1%.

Regarding `O=C1CCC(N2C(=O)c3cccc(OCc4cn(CCCCCC(=O)OCc5ccc(NC(=O)c6ccc([N+](=O)[O-])o6)cc5)nn4)c3C2=O)C(=O)N1` (stereo not drawn), the outcome in data set [1] was Active.

As to `O=C1CCC(N2C(=O)c3cccc(OCc4cn(CCCC(=O)OCc5ccc(NC(=O)c6ccc([N+](=O)[O-])o6)cc5)nn4)c3C2=O)C(=O)N1` (stereo not drawn), in data set [1], the result was Active.

One may read the DC50 as the concentration at which degradation of the target reaches its halfway point. In the case of `Cc1ncsc1-c1ccc([C@H](C)NC(=O)[C@@H]2C[C@@H](O)CN2C(=O)[C@@H](NC(=O)CCC(=O)NCCCNC(=O)c2cccc(S(=O)(=O)n3cc(C(=O)NCCCCCC(=O)Oc4ccc(NC(=O)c5ccc(-c6ccccc6)cc5)cc4NS(=O)(=O)c4ccc(F)cc4)ccc3=O)c2)C(C)(C)C)cc1`, in data set [4], the DC50 was determined as 530 nM. In data set [5], the Activity was found to be 56.6%.

`O=C1CCC(N2C(=O)c3cccc(OCc4cn(CCCCCC(=O)Oc5ccc(NC(=O)c6ccc([N+](=O)[O-])o6)cc5)nn4)c3C2=O)C(=O)N1` (stereo not drawn): the outcome in data set [1] was inactive.

As for `O=C1CCC(N2C(=O)c3cccc(OCc4cn(CC(=O)OCc5ccc(NC(=O)c6ccc([N+](=O)[O-])o6)cc5)nn4)c3C2=O)C(=O)N1` (stereo not drawn), the outcome in data set [1] was Active.

On to `O=C1CCC(N2C(=O)c3cccc(OC(=O)CCCc4cn(CCCCCC(=O)Oc5ccc(NC(=O)c6ccc([N+](=O)[O-])o6)cc5)nn4)c3C2=O)C(=O)N1` (stereo not drawn), for which the Activity in data set [1] amounted to 71%.

Take `O=C1CCC(N2C(=O)c3cccc(OCc4cn(CCCC(=O)Oc5ccc(NC(=O)c6ccc([N+](=O)[O-])o6)cc5)nn4)c3C2=O)C(=O)N1` (stereo not drawn): in data set [1], the result was Active.

For `CN1C(=O)CCC(N2C(=O)c3cccc(OCc4cn(CCCCCC(=O)OCCc5ccc(NC(=O)c6ccc([N+](=O)[O-])o6)cc5)nn4)c3C2=O)C1=O` (stereo not drawn), the result in data set [6] was Active.

In the case of `O=C1CCC(N2C(=O)c3ccc(OCc4cn(CC(=O)OCCc5ccc(NC(=O)c6ccc([N+](=O)[O-])o6)cc5)nn4)cc3C2=O)C(=O)N1` (stereo not drawn), in data set [1], the result was Active.
